Values joined by “and” are separate entries in the source; they are usually repeats but may differ in a detail not shown here. Equal entries are not always repeated. Structures can show the parent of a compound that is named as a salt. Where two headings read alike, the source gives them in different places.
Tests used:
[1] = target: T1, D1 (Homo sapiens, UniProt P21728); experiment: D1 cAMP HTRF assay (HEK293T/hD1#1 stable cell line); format: cell-based; design: expressed in transfected cells
Outline: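 Agonist-mode HTRF cAMP assay in HEK293T/hD1#1 stable cells resuspended in PBS with 0.5 μM IBMX; compound exposure 30 min at room temperature, then cAMP-D2 and anti-cAMP-cryptate detection for 1 h. EC50 from raw ratio data or from cAMP levels interpolated on a standard curve; percent effect versus controls.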

[2] = target: T1, D1; experiment: Human D1 receptor binding assay ([3H]-SCH23390 competition)
[3] = Human D1 Receptor Binding, Ki (nM), Geometric mean of 2-4 determinations, a: >=5 determinations, d: single determination
[4] = read-out: Human D1 Receptor Binding, Ki (nM), Geometric mean of 2-4 determinations, a: >=5 determinations, d: single determination

T1 sequence (P21728 whole entry): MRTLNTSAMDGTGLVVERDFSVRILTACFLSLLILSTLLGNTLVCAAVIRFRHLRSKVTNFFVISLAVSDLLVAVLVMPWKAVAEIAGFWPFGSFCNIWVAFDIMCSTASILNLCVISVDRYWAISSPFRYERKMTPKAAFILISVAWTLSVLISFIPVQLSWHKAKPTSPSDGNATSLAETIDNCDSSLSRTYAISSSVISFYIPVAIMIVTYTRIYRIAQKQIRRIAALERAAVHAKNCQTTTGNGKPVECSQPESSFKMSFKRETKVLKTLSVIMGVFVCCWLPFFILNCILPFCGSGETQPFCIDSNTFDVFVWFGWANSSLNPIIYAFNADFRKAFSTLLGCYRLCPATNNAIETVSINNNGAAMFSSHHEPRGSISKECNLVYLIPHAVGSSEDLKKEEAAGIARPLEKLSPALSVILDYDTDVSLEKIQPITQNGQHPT

| EC50 [1] | Ki [2, 3] [nM] | Ki [2, 4] [nM] | SMILES |
| --- | --- | --- | --- |
| 565 nM | 79.5 | – | Cc1cc(Oc2nccc3occc23)ccc1-c1c(C)nc(O)nc1C [Example 152, 5-[4-(furo[3,2-c]pyridin-4-yloxy)-2-methylphenyl]-4,6-dimethylpyrimidin-2-ol] |
| 51.8 nM | 5.99 | – | Cc1ccc2nccn2c1-c1ccc(Oc2nccc3occc23)cc1O [Example 153, 5-(furo[3,2-c]pyridin-4-yloxy)-2-(6-methylimidazo[1,2-a]pyridin-5-yl)phenol] |
| 2160 nM | 402 | – | Cc1cc(Oc2nccc3occc23)ccc1-c1cnncc1C [Example 154, 4-[3-methyl-4-(5-methylpyridazin-4-yl)phenoxy]furo[3,2-c]pyridine] |
| 1010 nM | 138 | – | Cc1cc(Sc2nccc3occc23)ccc1-c1c(C)ncnc1C [Example 155, 4-{[4-(4,6-dimethylpyrimidin-5-yl)-3-methylphenyl]sulfanyl}furo[3,2-c]pyridine] |
| > 15100 nM | 1820 | – | Cc1ncnc(C)c1-c1ccc(Oc2nccc3occc23)c2c1OCO2 [Example 156, 4-{[7-(4,6-dimethylpyrimidin-5-yl)-1,3-benzodioxol-4-yl]oxy}furo[3,2-c]pyridine] |
| 3520 nM | 354 | – | CCOc1nncc(C)c1-c1ccc(Oc2nccc3occc23)cc1C [Example 157, 4-[4-(3-ethoxy-5-methylpyridazin-4-yl)-3-methylphenoxy]furo[3,2-c]pyridine] |
| 2690 nM | 280 | – | Cc1ncnc(C)c1-c1ccc(Oc2nccc3occc23)c2cccnc12 [Example 158, 8-(4,6-dimethylpyrimidin-5-yl)-5-(furo[3,2-c]pyridin-4-yloxy)quinoline] |
| 212 nM | 11.6 | – | Cc1cc(Oc2nccc3occc23)ccc1-c1c(C)nn(C)c(=O)c1C [Example 159, 5-[4-(furo[3,2-c]pyridin-4-yloxy)-2-methylphenyl]-2,4,6-trimethylpyridazin-3(2H)-one] |
| 13 nM | 5.24 | – | Cc1n[nH]c(=O)c(C)c1-c1ccc(Oc2nccc3occc23)cc1Cl [Example 160, 5-[2-chloro-4-(furo[3,2-c]pyridin-4-yloxy)phenyl]-4,6-dimethylpyridazin-3(2H)-one] |
| 94.7 nM and 173 nM | – | 8.49 | Cc1ccc2nccn2c1-c1ccc(Oc2nccc3occc23)cc1 [Example 161, 4-[4-(6-methylimidazo[1,2-a]pyridin-5-yl)phenoxy]furo[3,2-c]pyridine] |
| 251 nM and 446 nM | 10.6 | – | Cc1cc(Oc2nccc3occc23)cc(C)c1-c1c(C)ncc2nccn12 [Example 162] |
| 389 nM | 12.8 | – | Cc1cc(Oc2nccc3occc23)ccc1-c1c(C)ncnc1N1CC[C@H](F)C1 [Example 163, 4-(4-{4-[(3S)-3-fluoropyrrolidin-1-yl]-6-methylpyrimidin-5-yl}-3-methylphenoxy)furo[3,2-c]pyridine, formate salt] |
| 625 nM | 15.2 | – | Cc1cc(Oc2nccc3occc23)ccc1-c1c(C)ncnc1N1Cc2cnn(C)c2C1 [Example 164, 4-{3-methyl-4-[4-methyl-6-(1-methyl-4,6-dihydropyrrolo[3,4-c]pyrazol-5(1H)-yl)pyrimidin-5-yl]phenoxy}furo[3,2-c]pyridine, formate salt] |
| 182 nM | 15.6 | – | Cc1cc(Oc2nccc3occc23)ccc1-c1c(C)ncnc1N(C)C [Example 165, 5-[4-(furo[3,2-c]pyridin-4-yloxy)-2-methylphenyl]-N,N,6-trimethylpyrimidin-4-amine, trifluoroacetate salt] |
| 310 nM | 22.9 | – | COc1cc(Oc2nccc3occc23)ccc1-c1cccc(=O)n1C [Example 166, 6-[4-(furo[3,2-c]pyridin-4-yloxy)-2-methoxyphenyl]-1-methylpyridin-2(1H)-one] |
| 354 nM | 24.4 | – | Cc1cc(Oc2nccc3occc23)ccc1-c1c(C)ncnc1N1CC=CC1 [Example 167, 4-{4-[4-(2,5-dihydro-1H-pyrrol-1-yl)-6-methylpyrimidin-5-yl]-3-methylphenoxy}furo[3,2-c]pyridine, trifluoroacetate salt] |
| 458 nM | 28.6 | – | COc1ccc2cnccc2c1-c1ccc(Oc2nccc3occc23)cc1 [Example 168, 5-[4-(furo[3,2-c]pyridin-4-yloxy)phenyl]-6-methoxyisoquinoline, trifluoroacetate salt] |
| 150 nM | 29.2 | – | COc1cc(Oc2nccc3occc23)ccc1-c1c(C)cnnc1C [Example 169, 4-[4-(3,5-dimethylpyridazin-4-yl)-3-methoxyphenoxy]furo[3,2-c]pyridine] |

| EC50 [1] | Ki [2, 3] [nM] | Ki [2, 4] [nM] | SMILES |
| --- | --- | --- | --- |
| 657 nM | 30 | – | Clc1cc(Oc2nccc3occc23)ccc1-c1cncc2nccn12 [Example 170, 5-[2-chloro-4-(furo[3,2-c]pyridin-4-yloxy)phenyl]imidazo[1,2-a]pyrazine] |
| 487 nM | 31.1 | – | COc1cnnc(C)c1-c1ccc(Oc2nccc3occc23)cc1C [Example 171, 4-[4-(5-methoxy-3-methylpyridazin-4-yl)-3-methylphenoxy]furo[3,2-c]pyridine] |
| 408 nM | 32.7 | – | Cc1ncc2nccn2c1-c1ccc(Oc2nccc3occc23)cc1 [Example 172, 5-[4-(furo[3,2-c]pyridin-4-yloxy)phenyl]-6-methylimidazo[1,2-a]pyrazine] |
| 564 nM | 36.8 | – | COc1cc(Oc2nccc3occc23)ccc1-c1c(C)ncc2nccn12 [Example 173, 5-[4-(furo[3,2-c]pyridin-4-yloxy)-2-methoxyphenyl]-6-methylimidazo[1,2-a]pyrazine] |
| 200 nM | – | 37.9 | Cc1cc(Oc2nccc3occc23)ccc1-c1cccc2nccn12 [Example 174, 4-[4-(imidazo[1,2-a]pyridin-5-yl)-3-methylphenoxy]furo[3,2-c]pyridine] |
| 475 nM | 41.4 | – | Cc1cc(Oc2nccc3occc23)ccc1-c1c(C)ncnc1N1Cc2cncnc2C1 [Example 175, 6-{5-[4-(furo[3,2-c]pyridin-4-yloxy)-2-methylphenyl]-6-methylpyrimidin-4-yl}-6,7-dihydro-5H-pyrrolo[3,4-d]pyrimidine, formate salt] |
| 780 nM | 44.2 | – | Cc1cc(Oc2nccc3occc23)ccc1-c1c(C)ccnc1C#N [Example 176, 3-[4-(furo[3,2-c]pyridin-4-yloxy)-2-methylphenyl]-4-methylpyridine-2-carbonitrile] |
| 2550 nM | 46.4 | – | Cc1cc(Oc2nccc3occc23)ccc1-c1nc(=O)[nH]nc1C [Example 177, 5-[4-(furo[3,2-c]pyridin-4-yloxy)-2-methylphenyl]-6-methyl-1,2,4-triazin-3(2H)-one] |
| 1160 nM | 46.4 | – | Cc1cc(Oc2nccc3occc23)ccc1-c1c(C)ncnc1N1CCCC1 [Example 178, 4-{3-methyl-4-[4-methyl-6-(pyrrolidin-1-yl)pyrimidin-5-yl]phenoxy}furo[3,2-c]pyridine, trifluoroacetate salt] |
| 921 nM | 47.2 | – | Cc1cc(Oc2nccc3occc23)ccc1-c1c(C)ncnc1N1CCC(CO)C1 (stereo not drawn) [Example 179, (1-{5-[4-(furo[3,2-c]pyridin-4-yloxy)-2-methylphenyl]-6-methylpyrimidin-4-yl}pyrrolidin-3-yl)methanol, formate salt] |
| 812 nM | 52.9 | – | Cc1cc(Oc2nccc3occc23)ccc1-c1c(C)ncnc1N1CCC[C@H]1CO [Example 180, [(2S)-1-{5-[4-(furo[3,2-c]pyridin-4-yloxy)-2-methylphenyl]-6-methylpyrimidin-4-yl}pyrrolidin-2-yl]methanol, formate salt] |
| 803 nM | 53.1 | – | COc1cc(Oc2nccc3occc23)ccc1-c1cccnc1C [Example 181, 4-[3-methoxy-4-(2-methylpyridin-3-yl)phenoxy]furo[3,2-c]pyridine] |
| 641 nM | 58 | – | CCCc1noc(COc2cc(Oc3nccc4occc34)ccc2-c2nccnc2C)n1 [Example 182, 4-{4-(3-methylpyrazin-2-yl)-3-[(3-propyl-1,2,4-oxadiazol-5-yl)methoxy]phenoxy}furo[3,2-c]pyridine, formate salt] |
| 1400 nM | 62.4 | – | Cc1cc(Oc2nccc3occc23)ccc1-c1c(C)ncnc1N1Cc2cccnc2C1 [Example 183, 4-{4-[4-(5,7-dihydro-6H-pyrrolo[3,4-b]pyridin-6-yl)-6-methylpyrimidin-5-yl]-3-methylphenoxy}furo[3,2-c]pyridine, formate salt] |
| 881 nM | 63.3 | – | Cc1ncccc1-c1ccc(Oc2nccc3occc23)cc1 [Example 184, 4-[4-(2-methylpyridin-3-yl)phenoxy]furo[3,2-c]pyridine] |
| 1160 nM | 64.2 | – | Cc1cc(Oc2nccc3occc23)ccc1-c1c(C)ncnc1N1CC[C@@H](F)C1 [Example 185, 4-(4-{4-[(3R)-3-fluoropyrrolidin-1-yl]-6-methylpyrimidin-5-yl}-3-methylphenoxy)furo[3,2-c]pyridine, trifluoroacetate salt] |
| 1020 nM | 64.6 | – | Cc1noc(C)c1COc1cc(Oc2nccc3occc23)ccc1-c1cccc2nccn12 [Example 186, 4-{3-[(3,5-dimethyl-1,2-oxazol-4-yl)methoxy]-4-(imidazo[1,2-a]pyridin-5-yl)phenoxy}furo[3,2-c]pyridine, trifluoroacetate salt] |
| 984 nM | 65.7 | – | Cc1cc(Oc2nccc3occc23)ccc1-c1c(C)ncnc1N1CCCC1CO (stereo not drawn) [Example 187, (1-{5-[4-(furo[3,2-c]pyridin-4-yloxy)-2-methylphenyl]-6-methylpyrimidin-4-yl}pyrrolidin-2-yl)methanol, trifluoroacetate salt] |

Source: US20150291625A1 (PFIZER INC., priority 2012, published 2015)
